The values below come from patent US9936701B2, “Herbicidal compounds” (Syngenta Participations AG, priority 2013, dated 2018).

For orientation: melting point means the temperature, or range, at which the solid turns liquid.

The structures appear in SMILES notation.

System in one data set: not given
Test: not given
Conditions: not given
`CCc1onc(N2C(=O)C(Cl)=C(C)C2O)c1C#N` (centres unmarked) [A71] showed a melting point of 95 to 97 °C.
The molecule `CC1=C(Cl)C(=O)N(c2cc(C(C)(C)CC#N)on2)C1O` (centres unmarked) [A72] returned a melting point of 103 to 105 °C.
The same measure, in the same setting: under `CCCC1=C(Br)C(=O)N(c2noc(C(C)(C)C)c2C#N)C1OC(=O)CC` (centres unmarked) [A73] stands 78 to 80 °C.
On the same count and under the same terms, the figure for `CC1=C(Cl)C(=O)N(c2cc(C(C)(C)C)on2)C1OC(=O)OCC(C)C` (centres unmarked) [A80] is 84 to 88 °C; for `CC1=C(Cl)C(=O)N(c2cc(C(C)(C)C)on2)C1OC(=O)Oc1ccccc1` (centres unmarked) [A84] it is 113 to 127 °C.

In a further data set the test system is a variety of test species. Nature of the data set: Pre-emergence herbicidal activity (glasshouse, sprayed one day after sowing, evaluated after 13 days). It counts as in vivo. On the set-up: key: 5=total damage to plant; 0=no damage to plant. The note with it: ABUTH, application pre-emergence, rate 1000 g/Ha, scale 0-5. In outline:
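Damage was rated 13 days after treatment on a 0–5 scale (0 = no damage, 5 = total damage). Pots of seeds in standard soil were sprayed one day after sowing with an aqueous solution from an acetone/water (50:50), 0.5% Tween 20 formulation and kept at 24/16 °C day/night.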
On to `CCc1onc(N2C(=O)C(Cl)=C(C)C2O)c1C#N` (centres unmarked) [A71], for which the “Pre-emergence herbicidal damage score, ABUTH” value is reported as 4.
For `CC1=C(Cl)C(=O)N(c2cc(C(C)(C)CC#N)on2)C1O` (centres unmarked) [A72], the “Pre-emergence herbicidal damage score, ABUTH” value is given as 5.
`CCCC1=C(Br)C(=O)N(c2noc(C(C)(C)C)c2C#N)C1OC(=O)CC` (centres unmarked) [A73]: the “Pre-emergence herbicidal damage score, ABUTH” value is on record as 5.
Regarding `CC1=C(Cl)C(=O)N(c2cc(C(C)(C)C)on2)C1OC(=O)OCC(C)C` (centres unmarked) [A80], the “Pre-emergence herbicidal damage score, ABUTH” value was 5.
Consider `CC1=C(Cl)C(=O)N(c2cc(C(C)(C)C)on2)C1OC(=O)Oc1ccccc1` (centres unmarked) [A84], for which the “Pre-emergence herbicidal damage score, ABUTH” value is 5.

Staying with this data set, now noted: ALOMY, application pre-emergence, rate 1000 g/Ha, scale 0-5.
Take `CCc1onc(N2C(=O)C(Cl)=C(C)C2O)c1C#N` (centres unmarked) [A71]: the “Pre-emergence herbicidal damage score, ALOMY” value was found to be 3.
For the molecule `CC1=C(Cl)C(=O)N(c2cc(C(C)(C)CC#N)on2)C1O` (centres unmarked) [A72], the “Pre-emergence herbicidal damage score, ALOMY” value is listed as 4.
As for `CCCC1=C(Br)C(=O)N(c2noc(C(C)(C)C)c2C#N)C1OC(=O)CC` (centres unmarked) [A73], the “Pre-emergence herbicidal damage score, ALOMY” value worked out at 3.
On the same count and under the same terms, the figure for `CC1=C(Cl)C(=O)N(c2cc(C(C)(C)C)on2)C1OC(=O)OCC(C)C` (centres unmarked) [A80] is 4; for `CC1=C(Cl)C(=O)N(c2cc(C(C)(C)C)on2)C1OC(=O)Oc1ccccc1` (centres unmarked) [A84] it is 4.

Still in this data set, the particulars now being: AMARE, application pre-emergence, rate 1000 g/Ha, scale 0-5.
Take `CCc1onc(N2C(=O)C(Cl)=C(C)C2O)c1C#N` (centres unmarked) [A71]: the “Pre-emergence herbicidal damage score, AMARE” value worked out at 5.
Consider `CC1=C(Cl)C(=O)N(c2cc(C(C)(C)CC#N)on2)C1O` (centres unmarked) [A72], for which the “Pre-emergence herbicidal damage score, AMARE” value is recorded as 5.
`CCCC1=C(Br)C(=O)N(c2noc(C(C)(C)C)c2C#N)C1OC(=O)CC` (centres unmarked) [A73]: the “Pre-emergence herbicidal damage score, AMARE” value is on record as 5.
Regarding `CC1=C(Cl)C(=O)N(c2cc(C(C)(C)C)on2)C1OC(=O)OCC(C)C` (centres unmarked) [A80], the “Pre-emergence herbicidal damage score, AMARE” value worked out at 5.
Same read-out and setting: the figure for `CC1=C(Cl)C(=O)N(c2cc(C(C)(C)C)on2)C1OC(=O)Oc1ccccc1` (centres unmarked) [A84] is 5.

Still in this data set, the particulars now being: ECHCG, application pre-emergence, rate 1000 g/Ha, scale 0-5.
Take `CCc1onc(N2C(=O)C(Cl)=C(C)C2O)c1C#N` (centres unmarked) [A71]: the “Pre-emergence herbicidal damage score, ECHCG” value amounted to 4.
As for `CC1=C(Cl)C(=O)N(c2cc(C(C)(C)CC#N)on2)C1O` (centres unmarked) [A72], the “Pre-emergence herbicidal damage score, ECHCG” value came to 5.
On the same count and under the same terms, the figure for `CCCC1=C(Br)C(=O)N(c2noc(C(C)(C)C)c2C#N)C1OC(=O)CC` (centres unmarked) [A73] is 4; for `CC1=C(Cl)C(=O)N(c2cc(C(C)(C)C)on2)C1OC(=O)OCC(C)C` (centres unmarked) [A80] it is 5; for `CC1=C(Cl)C(=O)N(c2cc(C(C)(C)C)on2)C1OC(=O)Oc1ccccc1` (centres unmarked) [A84] it is 5.

The data set is the same for the next values; noted with them: SETFA, application pre-emergence, rate 1000 g/Ha, scale 0-5.
Consider `CCc1onc(N2C(=O)C(Cl)=C(C)C2O)c1C#N` (centres unmarked) [A71], for which the “Pre-emergence herbicidal damage score, SETFA” value is 5.
In the case of `CC1=C(Cl)C(=O)N(c2cc(C(C)(C)CC#N)on2)C1O` (centres unmarked) [A72], the “Pre-emergence herbicidal damage score, SETFA” value stood at 5.
The same measure, in the same setting: the figure for `CCCC1=C(Br)C(=O)N(c2noc(C(C)(C)C)c2C#N)C1OC(=O)CC` (centres unmarked) [A73] is 5; for `CC1=C(Cl)C(=O)N(c2cc(C(C)(C)C)on2)C1OC(=O)OCC(C)C` (centres unmarked) [A80] it is 5; for `CC1=C(Cl)C(=O)N(c2cc(C(C)(C)C)on2)C1OC(=O)Oc1ccccc1` (centres unmarked) [A84] it is 5.

The data set is the same for the next values; noted with them: ZEAMX, application pre-emergence, rate 1000 g/Ha, scale 0-5.
In the case of `CCc1onc(N2C(=O)C(Cl)=C(C)C2O)c1C#N` (centres unmarked) [A71], the “Pre-emergence herbicidal damage score, ZEAMX” value is 2.
The same measure, in the same setting: the figure for `CC1=C(Cl)C(=O)N(c2cc(C(C)(C)CC#N)on2)C1O` (centres unmarked) [A72] is 4.
As to `CCCC1=C(Br)C(=O)N(c2noc(C(C)(C)C)c2C#N)C1OC(=O)CC` (centres unmarked) [A73], the “Pre-emergence herbicidal damage score, ZEAMX” value came out at 3.
Turning to `CC1=C(Cl)C(=O)N(c2cc(C(C)(C)C)on2)C1OC(=O)OCC(C)C` (centres unmarked) [A80], the “Pre-emergence herbicidal damage score, ZEAMX” value was 3.
Consider `CC1=C(Cl)C(=O)N(c2cc(C(C)(C)C)on2)C1OC(=O)Oc1ccccc1` (centres unmarked) [A84], for which the “Pre-emergence herbicidal damage score, ZEAMX” value was 3.

The subject of another data set is a variety of test species. Description: Post-emergence herbicidal activity (glasshouse, sprayed after 8 days cultivation, evaluated after 13 days). It is filed as in vivo. Also on record: key: 5=total damage to plant; 0=no damage to plant. The following applies: Abutilon theophrasti, rate 1000 g/Ha, scale 0-5. In outline: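 Damage was rated 0-5 (5 = total) 13 days after a post-emergence spray of acetone/water (50:50) plus 0.5% Tween 20 formulation. Plants were sprayed at 8 days' growth and kept at 24/16° C, 14 h light, 65% humidity, watered twice daily.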
Regarding `CCc1onc(N2C(=O)C(Cl)=C(C)C2O)c1C#N` (centres unmarked) [A71], the “ABUTH (Abutilon theophrasti) damage score, application post-emergence” value (“ABUTH … application post-emergence” below) was found to be 5.
In the case of `CC1=C(Cl)C(=O)N(c2cc(C(C)(C)CC#N)on2)C1O` (centres unmarked) [A72], the “ABUTH … application post-emergence” value stood at 5.
Take `CCCC1=C(Br)C(=O)N(c2noc(C(C)(C)C)c2C#N)C1OC(=O)CC` (centres unmarked) [A73]: the “ABUTH … application post-emergence” value stood at 5.
Regarding `CC1=C(Cl)C(=O)N(c2cc(C(C)(C)C)on2)C1OC(=O)OCC(C)C` (centres unmarked) [A80], the “ABUTH … application post-emergence” value is on record as 5.
As to `CC1=C(Cl)C(=O)N(c2cc(C(C)(C)C)on2)C1OC(=O)Oc1ccccc1` (centres unmarked) [A84], the “ABUTH … application post-emergence” value is 5.

The same data set, now with this note: Alopecurus myosuroides, rate 1000 g/Ha, scale 0-5.
Regarding `CCc1onc(N2C(=O)C(Cl)=C(C)C2O)c1C#N` (centres unmarked) [A71], the “ALOMY (Alopecurus myosuroides) damage score, application post-emergence” value is given as 4.
With `CC1=C(Cl)C(=O)N(c2cc(C(C)(C)CC#N)on2)C1O` (centres unmarked) [A72], the “ALOMY (Alopecurus myosuroides) damage score, application post-emergence” value is given as 5.
Still for that read-out and setting: under `CCCC1=C(Br)C(=O)N(c2noc(C(C)(C)C)c2C#N)C1OC(=O)CC` (centres unmarked) [A73] stands 4; under `CC1=C(Cl)C(=O)N(c2cc(C(C)(C)C)on2)C1OC(=O)OCC(C)C` (centres unmarked) [A80], 5; under `CC1=C(Cl)C(=O)N(c2cc(C(C)(C)C)on2)C1OC(=O)Oc1ccccc1` (centres unmarked) [A84], 5.

Staying with this data set, now noted: Amaranthus retroflexus, rate 1000 g/Ha, scale 0-5.
Regarding `CCc1onc(N2C(=O)C(Cl)=C(C)C2O)c1C#N` (centres unmarked) [A71], the “AMARE (Amaranthus retroflexus) damage score, application post-emergence” value (“AMARE … application post-emergence” below) stood at 5.
Regarding `CC1=C(Cl)C(=O)N(c2cc(C(C)(C)CC#N)on2)C1O` (centres unmarked) [A72], the “AMARE … application post-emergence” value is recorded as 5.
Same read-out and setting: the figure for `CCCC1=C(Br)C(=O)N(c2noc(C(C)(C)C)c2C#N)C1OC(=O)CC` (centres unmarked) [A73] is 5; for `CC1=C(Cl)C(=O)N(c2cc(C(C)(C)C)on2)C1OC(=O)OCC(C)C` (centres unmarked) [A80] it is 5.
`CC1=C(Cl)C(=O)N(c2cc(C(C)(C)C)on2)C1OC(=O)Oc1ccccc1` (centres unmarked) [A84]: the “AMARE … application post-emergence” value worked out at 5.

Staying with this data set, now noted: Echinochloa crus-galli, rate 1000 g/Ha, scale 0-5.
Take `CCc1onc(N2C(=O)C(Cl)=C(C)C2O)c1C#N` (centres unmarked) [A71]: the “ECHCG (Echinochloa crus-galli) damage score, application post-emergence” value (“ECHCG … application post-emergence” below) turned out to be 5.
As for `CC1=C(Cl)C(=O)N(c2cc(C(C)(C)CC#N)on2)C1O` (centres unmarked) [A72], the “ECHCG … application post-emergence” value is recorded as 5.
On to `CCCC1=C(Br)C(=O)N(c2noc(C(C)(C)C)c2C#N)C1OC(=O)CC` (centres unmarked) [A73], for which the “ECHCG … application post-emergence” value was 5.
In the case of `CC1=C(Cl)C(=O)N(c2cc(C(C)(C)C)on2)C1OC(=O)OCC(C)C` (centres unmarked) [A80], the “ECHCG … application post-emergence” value amounted to 5.
Turning to `CC1=C(Cl)C(=O)N(c2cc(C(C)(C)C)on2)C1OC(=O)Oc1ccccc1` (centres unmarked) [A84], the “ECHCG … application post-emergence” value is 5.

The same data set, now with this note: Setaria faberi, rate 1000 g/Ha, scale 0-5.
In the case of `CCc1onc(N2C(=O)C(Cl)=C(C)C2O)c1C#N` (centres unmarked) [A71], the “SETFA (Setaria faberi) damage score, application post-emergence” value (“SETFA (Setaria faberi) damage score” below) is listed as 5.
Consider `CC1=C(Cl)C(=O)N(c2cc(C(C)(C)CC#N)on2)C1O` (centres unmarked) [A72], for which the “SETFA (Setaria faberi) damage score” value is reported as 5.
On to `CCCC1=C(Br)C(=O)N(c2noc(C(C)(C)C)c2C#N)C1OC(=O)CC` (centres unmarked) [A73], for which the “SETFA (Setaria faberi) damage score” value is 5.
Still for that read-out and setting: under `CC1=C(Cl)C(=O)N(c2cc(C(C)(C)C)on2)C1OC(=O)OCC(C)C` (centres unmarked) [A80] stands 5.
Still for that read-out and setting: the figure for `CC1=C(Cl)C(=O)N(c2cc(C(C)(C)C)on2)C1OC(=O)Oc1ccccc1` (centres unmarked) [A84] is 5.

Still in this data set, the particulars now being: Zea mays, rate 1000 g/Ha, scale 0-5.
For the molecule `CCc1onc(N2C(=O)C(Cl)=C(C)C2O)c1C#N` (centres unmarked) [A71], the “ZEAMX (Zea mays) damage score, application post-emergence” value (shortened to “ZEAMX (Zea mays) damage score”) stood at 2.
As to `CC1=C(Cl)C(=O)N(c2cc(C(C)(C)CC#N)on2)C1O` (centres unmarked) [A72], the “ZEAMX (Zea mays) damage score” value came out at 5.
Turning to `CCCC1=C(Br)C(=O)N(c2noc(C(C)(C)C)c2C#N)C1OC(=O)CC` (centres unmarked) [A73], the “ZEAMX (Zea mays) damage score” value is reported as 2.
Same read-out and setting: under `CC1=C(Cl)C(=O)N(c2cc(C(C)(C)C)on2)C1OC(=O)OCC(C)C` (centres unmarked) [A80] stands 3; under `CC1=C(Cl)C(=O)N(c2cc(C(C)(C)C)on2)C1OC(=O)Oc1ccccc1` (centres unmarked) [A84], 3.
